The molecules below were run against Trypsin (Homo sapiens, UniProt P07477+P07478+P35030) (assay: Binding affinity towards human trypsin).
Assay type: protein assay
With `N=C(N)c1cccc(-n2cccc2C(=O)Nc2ccc(-c3ccccc3S(N)(=O)=O)cc2)c1` the Ki was 56 nM.
For `N=C(N)c1cccc(-c2nocc2C(=O)Nc2ccc(-c3ccccc3S(N)(=O)=O)cc2)c1.O=C(O)C(F)(F)F`, the Ki was 21 nM.
With `N=C(N)c1cccc(-c2[nH]c(O)nc2C(=O)Nc2ccc(-c3ccccc3S(N)(=O)=O)cc2)c1.O=C(O)C(F)(F)F` the Ki was 390 nM.
`Cc1nc(-c2cccc(C(=N)N)c2)c(C(=O)Nc2ccc(-c3ccccc3S(N)(=O)=O)cc2)s1.O=C(O)C(F)(F)F` was tested, and the Ki was 60 nM.
`N=C(N)c1cccc(-c2ocnc2C(=O)Nc2ccc(-c3ccccc3S(N)(=O)=O)cc2)c1.O=C(O)C(F)(F)F` gave a Ki of 261 nM.
`N=C(N)c1cccc(-n2nncc2C(=O)Nc2ccc(-c3ccccc3S(N)(=O)=O)cc2)c1.O=C(O)C(F)(F)F` was tested, and the Ki was 3.4 nM.
`N=C(N)c1cccc(-n2cncc2C(=O)Nc2ccc(-c3ccccc3S(N)(=O)=O)cc2)c1.O=C(O)C(F)(F)F` gave a Ki of 58 nM.
In the case of `Cc1nc(C(=O)Nc2ccc(-c3ccccc3S(N)(=O)=O)cc2)c(-c2cccc(C(=N)N)c2)[nH]1.O=C(O)C(F)(F)F`, the Ki is reported as 1100 nM.
`N=C(N)c1cccc(-n2nnnc2C(=O)Nc2ccc(-c3ccccc3S(N)(=O)=O)cc2)c1.O=C(O)C(F)(F)F` showed a Ki of 6.4 nM.
Molecule `N=C(N)c1cccc(-c2ccccc2C(=O)Nc2ccc(-c3ccccc3S(N)(=O)=O)cc2)c1.O=C(O)C(F)(F)F` has a Ki of 780 nM.
For `N=C(N)c1cccc(-c2ncsc2C(=O)Nc2ccc(-c3ccccc3S(N)(=O)=O)cc2)c1.O=C(O)C(F)(F)F`, the Ki was 97 nM.
Work on `Cc1nc(-c2cccc(C(=N)N)c2)c(C(=O)Nc2ccc(-c3ccccc3S(N)(=O)=O)cc2)o1.O=C(O)C(F)(F)F` yielded a Ki of 190 nM.
`Cc1cn(-c2cccc(C(=N)N)c2)c(C(=O)Nc2ccc(-c3ccccc3S(N)(=O)=O)cc2)n1.O=C(O)C(F)(F)F` gave a Ki of 27 nM.
In the case of `Cn1cc(C(=O)Nc2ccc(-c3ccccc3S(N)(=O)=O)cc2)c(-c2cccc(C(=N)N)c2)n1.O=C(O)C(F)(F)F`, the Ki is reported as 220 nM.
In the case of `N=C(N)c1cccc(-n2ccnc2C(=O)Nc2ccc(-c3ccccc3S(N)(=O)=O)cc2)c1.O=C(O)C(F)(F)F`, the Ki is reported as 26 nM.
With `N=C(N)c1cccc(-c2ncccc2C(=O)Nc2ccc(-c3ccccc3S(N)(=O)=O)cc2)c1.O=C(O)C(F)(F)F` the Ki was 260 nM.
In the case of `N=C(N)c1cccc(-n2nccc2C(=O)Nc2ccc(-c3ccccc3S(N)(=O)=O)cc2)c1`, the Ki is reported as 15 nM.

What follows are molecules tested against Coagulation factor X (Homo sapiens, UniProt P00742) (assay: Binding affinity towards human Serine protease FXa).
Coagulation factor X (Homo sapiens, UniProt P00742), sequence (P00742 41-179 limits assumed): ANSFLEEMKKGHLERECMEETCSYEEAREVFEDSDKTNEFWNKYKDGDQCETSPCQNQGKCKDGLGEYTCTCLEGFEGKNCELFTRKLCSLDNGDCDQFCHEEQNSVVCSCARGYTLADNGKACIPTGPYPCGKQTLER
Coagulation factor X (Homo sapiens, UniProt P00742), sequence (P00742 235-488 limits assumed): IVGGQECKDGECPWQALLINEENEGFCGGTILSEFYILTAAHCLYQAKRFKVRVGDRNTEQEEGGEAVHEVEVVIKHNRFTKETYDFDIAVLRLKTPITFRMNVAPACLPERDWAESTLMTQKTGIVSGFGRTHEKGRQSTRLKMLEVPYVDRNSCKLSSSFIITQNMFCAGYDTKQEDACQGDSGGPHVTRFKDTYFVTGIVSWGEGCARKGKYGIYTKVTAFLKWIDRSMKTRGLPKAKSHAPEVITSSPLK
Molecule `N=C(N)c1cccc(-c2[nH]c(O)nc2C(=O)Nc2ccc(-c3ccccc3S(N)(=O)=O)cc2)c1.O=C(O)C(F)(F)F` has a Ki of 2.3 nM.
In the case of `Cc1nc(-c2cccc(C(=N)N)c2)c(C(=O)Nc2ccc(-c3ccccc3S(N)(=O)=O)cc2)s1.O=C(O)C(F)(F)F`, the Ki is reported as 0.06 nM.
`N=C(N)c1cccc(-c2ocnc2C(=O)Nc2ccc(-c3ccccc3S(N)(=O)=O)cc2)c1.O=C(O)C(F)(F)F` showed a Ki of 2.5 nM.
`N=C(N)c1cccc(-n2nncc2C(=O)Nc2ccc(-c3ccccc3S(N)(=O)=O)cc2)c1.O=C(O)C(F)(F)F` gave a Ki of 0.023 nM.
Molecule `N=C(N)c1cccc(-n2cncc2C(=O)Nc2ccc(-c3ccccc3S(N)(=O)=O)cc2)c1.O=C(O)C(F)(F)F` has a Ki of 1.1 nM.
Molecule `Cc1nc(C(=O)Nc2ccc(-c3ccccc3S(N)(=O)=O)cc2)c(-c2cccc(C(=N)N)c2)[nH]1.O=C(O)C(F)(F)F` has a Ki of 6 nM.
For `N=C(N)c1cccc(-n2nnnc2C(=O)Nc2ccc(-c3ccccc3S(N)(=O)=O)cc2)c1.O=C(O)C(F)(F)F`, the Ki was 0.037 nM.
`N=C(N)c1cccc(-c2ccccc2C(=O)Nc2ccc(-c3ccccc3S(N)(=O)=O)cc2)c1.O=C(O)C(F)(F)F` showed a Ki of 8.2 nM.
With `N=C(N)c1cccc(-c2ncsc2C(=O)Nc2ccc(-c3ccccc3S(N)(=O)=O)cc2)c1.O=C(O)C(F)(F)F` the Ki was 0.82 nM.
For `Cc1nc(-c2cccc(C(=N)N)c2)c(C(=O)Nc2ccc(-c3ccccc3S(N)(=O)=O)cc2)o1.O=C(O)C(F)(F)F`, the Ki was 0.4 nM.
`Cc1cn(-c2cccc(C(=N)N)c2)c(C(=O)Nc2ccc(-c3ccccc3S(N)(=O)=O)cc2)n1.O=C(O)C(F)(F)F` was tested, and the Ki was 0.3 nM.
With `Cn1cc(C(=O)Nc2ccc(-c3ccccc3S(N)(=O)=O)cc2)c(-c2cccc(C(=N)N)c2)n1.O=C(O)C(F)(F)F` the Ki was 0.2 nM.
Molecule `N=C(N)c1cccc(-n2ccnc2C(=O)Nc2ccc(-c3ccccc3S(N)(=O)=O)cc2)c1.O=C(O)C(F)(F)F` has a Ki of 0.33 nM.
`N=C(N)c1cccc(-c2ncccc2C(=O)Nc2ccc(-c3ccccc3S(N)(=O)=O)cc2)c1.O=C(O)C(F)(F)F` was tested, and the Ki was 1 nM.

Species: Oryctolagus cuniculus
Test: Antithrombotic efficacy was determined in a rabbit (A-V) shunt model
Assay type: functional
Molecule `Cc1cc(C(=O)Nc2ccc(-c3ccccc3S(N)(=O)=O)cc2)n(-c2cccc(C(=N)N)c2)n1.O=C(O)C(F)(F)F` has an ID50 of 0.023 µM/h/kg.
For `N=C(N)c1cccc(-c2nocc2C(=O)Nc2ccc(-c3ccccc3S(N)(=O)=O)cc2)c1.O=C(O)C(F)(F)F`, the ID50 was 0.31 µM/h/kg.
`Cc1nc(-c2cccc(C(=N)N)c2)c(C(=O)Nc2ccc(-c3ccccc3S(N)(=O)=O)cc2)s1.O=C(O)C(F)(F)F` gave an ID50 of 0.5 µM/h/kg.
Work on `N=C(N)c1cccc(-c2ocnc2C(=O)Nc2ccc(-c3ccccc3S(N)(=O)=O)cc2)c1.O=C(O)C(F)(F)F` yielded an ID50 of 0.54 µM/h/kg.
`N=C(N)c1cccc(-n2nnnc2C(=O)Nc2ccc(-c3ccccc3S(N)(=O)=O)cc2)c1.O=C(O)C(F)(F)F` was tested, and the ID50 was 0.13 µM/h/kg.

What follows are molecules tested against T1, Coagulation factor X (Oryctolagus cuniculus, UniProt O19045) (assay: Binding affinity towards Rabbit Coagulation factor X in a rabbit arterio-venous (A-V) shunt model).
T1 sequence (O19045 whole entry): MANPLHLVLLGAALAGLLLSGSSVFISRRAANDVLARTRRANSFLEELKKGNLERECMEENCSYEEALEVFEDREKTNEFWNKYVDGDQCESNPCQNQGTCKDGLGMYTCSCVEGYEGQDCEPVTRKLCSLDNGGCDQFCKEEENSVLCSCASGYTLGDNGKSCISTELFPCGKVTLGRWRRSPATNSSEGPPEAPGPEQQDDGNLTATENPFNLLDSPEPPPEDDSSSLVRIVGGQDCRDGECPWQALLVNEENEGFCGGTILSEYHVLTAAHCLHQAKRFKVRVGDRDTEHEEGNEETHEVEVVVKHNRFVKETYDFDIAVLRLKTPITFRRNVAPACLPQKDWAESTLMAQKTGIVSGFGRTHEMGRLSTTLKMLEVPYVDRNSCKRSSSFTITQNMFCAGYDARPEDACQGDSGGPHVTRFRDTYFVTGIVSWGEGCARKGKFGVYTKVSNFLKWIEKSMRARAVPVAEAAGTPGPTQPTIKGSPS
`Cc1nc(-c2cccc(C(=N)N)c2)c(C(=O)Nc2ccc(-c3ccccc3S(N)(=O)=O)cc2)s1.O=C(O)C(F)(F)F` showed a Ki of 0.08 nM.

These molecules were tested against Prothrombin (Homo sapiens, UniProt P00734) (assay: Binding affinity towards human thrombin).
For `N=C(N)c1cccc(-c2[nH]c(O)nc2C(=O)Nc2ccc(-c3ccccc3S(N)(=O)=O)cc2)c1.O=C(O)C(F)(F)F`, the Ki was 6000 nM.
`Cc1nc(-c2cccc(C(=N)N)c2)c(C(=O)Nc2ccc(-c3ccccc3S(N)(=O)=O)cc2)s1.O=C(O)C(F)(F)F` was tested, and the Ki was 1250 nM.
In the case of `N=C(N)c1cccc(-c2ocnc2C(=O)Nc2ccc(-c3ccccc3S(N)(=O)=O)cc2)c1.O=C(O)C(F)(F)F`, the Ki is reported as 3300 nM.
In the case of `N=C(N)c1cccc(-n2nncc2C(=O)Nc2ccc(-c3ccccc3S(N)(=O)=O)cc2)c1.O=C(O)C(F)(F)F`, the Ki is reported as 300 nM.
Molecule `N=C(N)c1cccc(-n2cncc2C(=O)Nc2ccc(-c3ccccc3S(N)(=O)=O)cc2)c1.O=C(O)C(F)(F)F` has a Ki of 3200 nM.
Work on `Cc1nc(C(=O)Nc2ccc(-c3ccccc3S(N)(=O)=O)cc2)c(-c2cccc(C(=N)N)c2)[nH]1.O=C(O)C(F)(F)F` yielded a Ki of over 21000 nM.
In the case of `N=C(N)c1cccc(-n2nnnc2C(=O)Nc2ccc(-c3ccccc3S(N)(=O)=O)cc2)c1.O=C(O)C(F)(F)F`, the Ki is reported as 300 nM.
`N=C(N)c1cccc(-c2ccccc2C(=O)Nc2ccc(-c3ccccc3S(N)(=O)=O)cc2)c1.O=C(O)C(F)(F)F` gave a Ki of over 6300 nM.
`N=C(N)c1cccc(-c2ncsc2C(=O)Nc2ccc(-c3ccccc3S(N)(=O)=O)cc2)c1.O=C(O)C(F)(F)F` gave a Ki of over 6300 nM.
With `Cc1nc(-c2cccc(C(=N)N)c2)c(C(=O)Nc2ccc(-c3ccccc3S(N)(=O)=O)cc2)o1.O=C(O)C(F)(F)F` the Ki was 3600 nM.
Molecule `Cc1cn(-c2cccc(C(=N)N)c2)c(C(=O)Nc2ccc(-c3ccccc3S(N)(=O)=O)cc2)n1.O=C(O)C(F)(F)F` has a Ki of 600 nM.
In the case of `Cn1cc(C(=O)Nc2ccc(-c3ccccc3S(N)(=O)=O)cc2)c(-c2cccc(C(=N)N)c2)n1.O=C(O)C(F)(F)F`, the Ki is reported as 2640 nM.
`N=C(N)c1cccc(-n2ccnc2C(=O)Nc2ccc(-c3ccccc3S(N)(=O)=O)cc2)c1.O=C(O)C(F)(F)F` gave a Ki of 800 nM.
Molecule `N=C(N)c1cccc(-c2ncccc2C(=O)Nc2ccc(-c3ccccc3S(N)(=O)=O)cc2)c1.O=C(O)C(F)(F)F` has a Ki of 15400 nM.
